As usually defined, the stoichiometry N is the number of molecules, sites or subunits per partner or assembly.

Data set [1] deals with T1, Ss-SibL (SibL) (Streptosporangium sibiricum, UniProt C0LTM6).
T1 construct: recombinant His6-tagged (pET-21b), E. coli BL21(DE3), Ni-NTA and gel filtration; homodimer; tag removal not described
Put plainly: X-ray crystal structure of ternary complex with SAH, […] A. In kind it is binding. As to conditions: SAH bound; D-/L-3-HK used in crystallization; pH 7.7; substrate site.

Data set [2] addresses T1, Ss-SibL (SibL). The data set can be described thus: X-ray crystal structure of binary complex, […] A. The class given is binding. As to conditions: crystals obtained by using SAM, modelled as SAH; pH 7.7; SAM site; also bound in ternary complex 4U1Q.
Data set [3] concerns the molecule itself. Put plainly: crystal structure; crystals of apo Ss-SibL, of the binary complex with SAH and of the ternary complex with SAH and 3-HK; sitting-drop vapour diffusion; homodimer seen in the crystal.

As for `Nc1c(O)cccc1C(=O)C[C@H](N)C(=O)O` [L-3-HK], the “X-ray crystal structure of ternary complex with SAH, 2.1 A” value at Ss-SibL (SibL) [1] is given as “the electron densities clearly indicate that the bound substrate is L-3-HK”. Regarding `Nc1ncnc2c1ncn2[C@@H]1O[C@H](CSCC[C@H](N)C(=O)O)[C@@H](O)[C@H]1O` [S-adenosylhomocysteine], the “X-ray crystal structure of binary complex, 2.6 A” value on Ss-SibL (SibL) [2] is “the binary Ss-SibL/SAH and the ternary Ss-SibL/SAH/3HK complex crystals diffracted to higher resolution”.

B1: Streptosporangium sibiricum SibL (enzyme)
chain: MSSELSALVPVLFGHAAFQQLNAGCQLGLFELLHERGPLSAEEVADALRLPRRSADILLLGTTALGLSTVTDGGYRNGAPIGAAFRDGLWPVLRDIVQYQDKIAYQPAADYVESLRTGQNAGIRHFPGTTRDLYSRLAAVPGLEELFYRGMHAWSQLSNPVLLAQPDFTRVHRVLDVGGGDAVNAVALARAHPSLRVTVLDRPGALEVARKTIAEAGLEERVRTHAADIFTDSYPAGHDCVLFAHQLVIWSPEQNLTLLRKAYDAVEPGGRVLVFNAFTDDDRTGPLYAALDNVYFTTLPFRHSTIHRWADCESWLREAGFTDVGRTAPPGWTPHGVVSGSRPR
notes: SibL, SAM-dependent 3-hydroxykynurenine C-methyltransferase of Streptosporangium sibiricum; amplified by PCR from S. sibiricum genomic DNA and cloned into pET-21b; Homodimer in the crystals; The ternary complex was first phased with selenomethionine-substituted protein; also called Ss-SibL; 3-hydroxykynurenine C-methyltransferase; source: E. coli BL21 (DE3), purified (Ni-NTA, Superdex-200 size …)
As to B1, the “stoichiometry N” value in data set [3] was 2.
